Patent publication US7048919B2, “Osteoclast secreted chemokine and uses thereof” (The UAB Research Foundation, priority 2000, dated 2006)
Entries after “also recorded” stand apart in the source; their conditions may differ.

Columns and labels:
[1] = system: calmodulin; assay: Calmodulin protein levels in osteoclasts; format: cell-based, avian; conditions: for calmodulin protein levels: PMA treated osteoclasts
[2] = system: avian osteoclasts; assay: Osteoclastic bone resorption assay (3H proline release from labeled bone); format: cell-based, avian (white Leghorn hens); conditions: for effect on PMA stimulated increase in bone resorption: PMA stimulated osteoclasts
Protocol: Bone resorption assays using 150 μg labeled bone were cultured for four days in the presence of increasing concentrations of PMA. Resorption activity was quantified by measuring ^3H proline released to the media. Data represent the mean +/− SEM of n=5 experiments each performed in quadruplicate.
Avian osteoclasts (from egg-laying white Leghorn hens) were utilized because gram quantities of pure osteoclasts are readily obtained. Avian osteoclasts (>10^7 cells) were isolated as previously described (16). Laying hens on a limited calcium diet produce massive numbers of osteoclasts to meet the calcium requirement for eggshell production. The endosteum of such birds, is >50% osteoclasts by mass. Medullary bone is scraped from the endosteum into calcium- and magnesium-free phosphate-buffered saline (PBS) at 4° C. Cells are separated from matrix by washing through 100 μm nylon filters and sedimented through 70% newborn calf serum. Osteoclasts purified by density gradient sedimentation, result in preparations in which osteoclasts represent ˜75–90% of viable cells. Following sedimentation, macrophages represent <2% of the cell mass. For experiments requiring homogeneous osteoclasts the cells purified by serum sedimentation are then affinity purified b y attachment to bone fragments and then resedimented 24 hrs later, eliminating essentially all but viable, bone-attached osteoclasts (17).
L-[^3H]-proline-labeled devitalized bone is used as Substrate in the avian osteoclast resorption assay. This substrate has the advantages of reflecting removal of both the mineral and organic phases of bone, and is resistant to artifacts due to physicochemical exchange (e.g. media acidification (16)). Weanling rats (40–60 g) are injected with 1 mCi of L-[2,3,4,5−^3H]-proline, >100 Ci/mmol, on alternate days for 10 days. Rats are sacrificed on day 12 and bone recovered by dissection. After washing, the bone is dried in a desiccator at 42° C. for 7 days. Labeled 20–40 μm bone fragments are obtained by grinding the bone in a ball bearing mill and sieving to size.
Osteoclasts are plated at 2–3×10^3 cells/well on 24 well plates with 100 μg of labeled 20–40 μm ^3H labeled bone fragments. To avoid possible contamination (due to fusing macrophages or growth of fibroblast/osteoblast cells) bone resorption is measured after 4 days. Osteoclasts rapidly (˜4 hrs) attach to and begin to degrade the bone fragments, releasing label into the media. Bone degradation is determined by measuring label released to the media. […] The ^3H proline assay is also resistant to pH-dependent artifacts and has less inter-assay variability than pi t assays (17–19). Activity, with 100 μg bone fragments, is linear over 5–7 days (16).

[3] = system: avian osteoclasts; assay: mim-1 secretion by osteoclasts, Western analysis of lysates and media; format: cell-based; conditions: for effect on secretion of mim-1: PMA stimulated osteoclasts
Protocol: Avian osteoclasts were cultured as described in FIGS. 1 and 2; cells were washed with ice cold PBS and lysed. Culture media was collected from each treatment and boiled in sample buffer. Protein (25 μg) from cell lysates (Lysates) and equal aliquots of the corresponding media (Media) were resolved on 10% SDS-PAGE, transferred to PVDF membrane and Western blotted for mim-1. Molecular weights (kilodaltons) are indicated on the left. Representative of n=2 separate experiments.
Avian osteoclasts were cultured with bone (1 mg/well) for the indicated times in the presence of 0.3 μM PMA. Osteoclasts were washed with ice-cold phosphate buffered saline, lysed and 25 μg cell lysates resolved on 10% SDS-PAGE, transferred to PVDF membrane and probed with for mim-1 as described in the legend to FIG. 4. Data is representative of two separate experiments.
Avian osteoclasts are washed with phosphate buffered saline (PBS) and lysed as previously described (20). The lysis buffer (Buffer A) is 50 mM Tris, pH 7.0, 250 mM sucrose, 1 mM EGTA, 1 mM EDTA, 1 mM ammonium molybdate, 50 mM NaF, 1 mM orthovanadate, 0.5 μM okadaic acid, 5 mM benzamidine, 0.1 mM PMSF, 0.05 mg/ml pepstatin, 0.06 mg/ml leupeptin, 0.018 trypsin inhibitor units of aprotinin/ml, 10% glycerol and 1% Triton X100. Cells were solubilized 1 hr with rotation and the Triton insoluble material removed by centrifugation at 15,000×g for 5 min at 4° C. Lysates (25 μg protein) were resolved on 10% SDS-PAGE. Protein was transferred under standard conditions (21) to PVDF membranes. Mim-1 was detected on Western analysis using a polyclonal antibody generated against a trpE-mim-1 fusion protein (15) (generously provided by Scott Ness, University of New Mexico) by enhanced chemiluminescence. Protein concentrations were determined by the Bio Rad DC assay (Bio Rad, Richmond, Calif.).
To determine the effects of PMA on osteoclast secretion of mim-1 and its relation to bone resorption, osteoclasts were cultured as described above in the presence of the indicated concentrations of PMA and aliquots of media removed at the indicated times (FIG. 4) and the level of mim-1 determined b y Western analysis. As bone resorption was stimulated (see FIG. 1), mim-1 dercreased in the cell lysate (FIG. 4, left, Lysates) and increased in the culture, media (FIG. 4, right, Media).

Compound	calmodulin protein levels [1]	calmodulin protein levels ([1]; listed as Phorbol myristate acetate)	EC50 ([2]; Osteoclast, 96 h, read-out: K0.5 of stimulation of bone resorption) [µM]	stimulation of bone resorption by isolated osteoclasts ([2]; isolated avian osteoclasts, 4 days, 3H proline released to media) [fold]	mim-1 in osteoclast cell lysates ([3]; 0.3 μM PMA, 24 hours)	secretion of mim-1 by osteoclasts ([3]; increasing concentrations of PMA)	effect on PMA dependent increase in calmodulin levels ([1]; PMA stimulated osteoclasts)	effect on PMA stimulated increase in bone resorption [2]	effect on secretion of mim-1 [3]
CCCCCCCCCCCCCC(=O)O[C@@H]1[C@@H](C)[C@@]2(O)[C@@H](C=C(CO)C[C@]3(O)C(=O)C(C)=C[C@@H]23)[C@@H]2C(C)(C)[C@]12OC(C)=O [PMA, phorbol myristate acetate]	increase in calmodulin protein levels	dose dependent increase	0.1 to 0.3	4	substantially reduced	rapidly increased; also recorded: stimulated in a PMA concentration dependent manner	–	–	–
CC/C(=C(\c1ccccc1)c1ccc(OCCN(C)C)cc1)c1ccccc1 [tamoxifen]	–	–	–	–	–	–	inhibit	inhibited	did not inhibit
CN1CCN(CCCN2c3ccccc3Sc3ccc(C(F)(F)F)cc32)CC1 [trifluoperazine]	–	–	–	–	–	–	–	inhibited	did not inhibit
